Measurements taken from the NIST ThermoML archive (doi:10.1021/je800110r).
Numbers after ± are expanded uncertainties.

Details: 303.15 K, Liquid, Vibrating tube method

CCCCCCCCCC [decane]
Details	mass density [kg/m3]
29181 kPa	743.5 ± 2.1
29208 kPa	743.5 ± 2.1
29234 kPa	743.6 ± 2.1
29258 kPa	743.5 ± 2.1
29278 kPa	743.6 ± 2.1
29302 kPa	743.6 ± 2.1
29320 kPa	743.5 ± 2.1
29341 kPa	743.6 ± 2.1
29363 kPa	743.6 ± 2.1
29384 kPa	743.6 ± 2.1
29402 kPa	743.6 ± 2.1
29426 kPa	743.6 ± 2.1
29444 kPa	743.7 ± 2.1
29466 kPa	743.6 ± 2.1
29484 kPa	743.7 ± 2.1
29502 kPa	743.7 ± 2.1
29530 kPa	743.8 ± 2.1
29548 kPa	743.7 ± 2.1
29575 kPa	743.7 ± 2.1
29600 kPa	743.7 ± 2.1
29618 kPa	743.8 ± 2.1
29640 kPa	743.8 ± 2.1
29658 kPa	743.8 ± 2.1
29685 kPa	743.9 ± 2.1
29703 kPa	743.8 ± 2.1
29722 kPa	743.9 ± 2.1
29747 kPa	743.9 ± 2.1
29774 kPa	743.9 ± 2.1
29790 kPa	743.8 ± 2.1
29812 kPa	743.8 ± 2.1
29828 kPa	744 ± 2.1
29859 kPa	743.9 ± 2.1
29883 kPa	744 ± 2.1
29905 kPa	744 ± 2.1
29930 kPa	743.9 ± 2.1
29952 kPa	744 ± 2.1
29967 kPa	744 ± 2.1
29987 kPa	743.9 ± 2.1
30005 kPa	744 ± 2.1
30023 kPa	744.1 ± 2.1
30051 kPa	743.9 ± 2.1
30077 kPa	744.1 ± 2.1
30099 kPa	744 ± 2.1
30125 kPa	744 ± 2.1
30150 kPa	744.2 ± 2.1
30169 kPa	744.1 ± 2.1
30198 kPa	744.2 ± 2.1
30220 kPa	744.1 ± 2.1
30248 kPa	744.2 ± 2.1
30267 kPa	744.2 ± 2.1
30290 kPa	744.2 ± 2.1
30322 kPa	744.2 ± 2.1
30348 kPa	744.3 ± 2.1
30374 kPa	744.3 ± 2.1
30397 kPa	744.2 ± 2.1
30420 kPa	744.3 ± 2.1
30443 kPa	744.3 ± 2.1
30468 kPa	744.4 ± 2.1
30491 kPa	744.4 ± 2.1
30516 kPa	744.3 ± 2.1
30533 kPa	744.4 ± 2.1
30553 kPa	744.4 ± 2.1
30582 kPa	744.3 ± 2.1
30601 kPa	744.5 ± 2.1
30621 kPa	744.4 ± 2.1
30644 kPa	744.5 ± 2.1
30665 kPa	744.4 ± 2.1
30695 kPa	744.5 ± 2.1
30715 kPa	744.3 ± 2.1
30739 kPa	744.4 ± 2.1
30762 kPa	744.5 ± 2.1
30789 kPa	744.7 ± 2.1
30809 kPa	744.5 ± 2.1
30833 kPa	744.5 ± 2.1
30853 kPa	744.7 ± 2.1
30884 kPa	744.6 ± 2.1
30908 kPa	744.6 ± 2.1
30931 kPa	744.6 ± 2.1
30956 kPa	744.5 ± 2.1
30980 kPa	744.6 ± 2.1
31007 kPa	744.6 ± 2.1
31031 kPa	744.6 ± 2.1
31062 kPa	744.8 ± 2.1
31083 kPa	744.7 ± 2.1
31111 kPa	744.7 ± 2.1
31134 kPa	744.6 ± 2.1
31157 kPa	744.7 ± 2.1
31178 kPa	744.8 ± 2.1
31212 kPa	744.7 ± 2.1
31231 kPa	744.8 ± 2.1
31252 kPa	744.9 ± 2.1
31271 kPa	744.8 ± 2.1
31293 kPa	744.9 ± 2.1
31311 kPa	744.9 ± 2.1
31327 kPa	744.8 ± 2.1
31348 kPa	744.9 ± 2.1
31363 kPa	744.9 ± 2.1
31381 kPa	744.9 ± 2.1
31400 kPa	744.9 ± 2.1
31425 kPa	744.9 ± 2.1
31446 kPa	745 ± 2.1
31468 kPa	745 ± 2.1
31490 kPa	744.9 ± 2.1
31515 kPa	744.9 ± 2.1
31540 kPa	745 ± 2.1
31565 kPa	745 ± 2.1
31588 kPa	745 ± 2.1
31610 kPa	745.1 ± 2.1
31640 kPa	745.2 ± 2.1
31660 kPa	745.1 ± 2.1
31688 kPa	745.1 ± 2.1
31707 kPa	745.2 ± 2.1
31725 kPa	745.2 ± 2.1
31754 kPa	745.1 ± 2.1
31769 kPa	745.2 ± 2.1
31798 kPa	745.1 ± 2.1
31817 kPa	745.2 ± 2.1
31842 kPa	745.2 ± 2.1
31861 kPa	745.1 ± 2.1
31887 kPa	745.1 ± 2.1
31906 kPa	745.3 ± 2.1
31925 kPa	745.3 ± 2.1
31950 kPa	745.3 ± 2.1
31972 kPa	745.3 ± 2.1
31995 kPa	745.3 ± 2.1
32014 kPa	745.3 ± 2.1
32040 kPa	745.4 ± 2.1
32059 kPa	745.4 ± 2.1
32079 kPa	745.4 ± 2.1
32098 kPa	745.3 ± 2.1
32128 kPa	745.3 ± 2.1
32150 kPa	745.4 ± 2.1
32176 kPa	745.3 ± 2.1
32198 kPa	745.5 ± 2.1
32228 kPa	745.4 ± 2.1
32251 kPa	745.4 ± 2.1
32274 kPa	745.5 ± 2.1
